Test results from publication PMC6759758, “Cofactor Selectivity in Methylmalonyl Coenzyme A Mutase, a Model Cobamide-Dependent Enzyme” (mBio, 2019).

Legend:
[1] = target: T1, SmMCM (Sinorhizobium meliloti MCM) (Rhizobium meliloti, UniProt O86028); test: Thiokinase-coupled spectrophotometric MCM activity assay; format: biochemical; conditions: SmMCM 50 nM reconstituted with 2 μM cobamide; (R)-methylmalonyl-CoA to succinyl-CoA, steady state, 30°C
T1 construct: made in house; host or cells: E. coli BL21(DE3)pLysS
T1 sequence (O86028 2-712): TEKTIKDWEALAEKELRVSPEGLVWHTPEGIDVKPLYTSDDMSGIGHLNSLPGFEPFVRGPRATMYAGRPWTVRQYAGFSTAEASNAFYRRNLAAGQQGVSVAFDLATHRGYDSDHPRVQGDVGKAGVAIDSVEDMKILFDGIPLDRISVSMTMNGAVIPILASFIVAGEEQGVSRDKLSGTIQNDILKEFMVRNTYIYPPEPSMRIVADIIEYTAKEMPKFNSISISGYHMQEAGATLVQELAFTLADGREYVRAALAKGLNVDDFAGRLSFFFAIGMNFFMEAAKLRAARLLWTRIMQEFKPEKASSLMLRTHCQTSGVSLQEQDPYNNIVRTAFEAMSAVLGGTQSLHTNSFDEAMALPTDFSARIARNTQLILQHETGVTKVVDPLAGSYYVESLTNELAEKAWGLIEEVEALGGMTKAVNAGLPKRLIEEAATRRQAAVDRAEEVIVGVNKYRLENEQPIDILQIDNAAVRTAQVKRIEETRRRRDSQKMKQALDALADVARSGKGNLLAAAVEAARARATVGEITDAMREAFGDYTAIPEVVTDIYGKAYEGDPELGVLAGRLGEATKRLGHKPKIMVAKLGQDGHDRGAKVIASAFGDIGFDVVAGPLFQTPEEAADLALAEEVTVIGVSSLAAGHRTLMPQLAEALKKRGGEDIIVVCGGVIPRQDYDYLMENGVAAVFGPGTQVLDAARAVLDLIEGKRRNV
Method: Final concentrations of reagents in the assays were as follows: Tris-phosphate buffer (pH 7.5), 100 mM Tris, 50 mM phosphate; dithionitrobenzoate (DTNB), 400 μM; ADP, 1 mM; MgCl2, 10 mM; (R)-methylmalonyl-CoA, 0 to 4 mM; thiokinase, 5 μM; MCM, 50 nM; and cobamides, 2 μM.
Three separate mixes were prepared, all in 1× Tris-phosphate buffer: an assay mix containing DTNB, ADP, and MgCl2; a substrate mix containing (R)-methylmalonyl-CoA; and an enzyme mix containing thiokinase, MCM, and cobamides. All steps involving cobamides were conducted in the dark. The assay and enzyme mixes were prepared as a master mix and aliquoted into 96-well plates; substrate mixes were prepared in individual wells, in triplicate. All components were incubated at 30°C for 40 min to equilibrate temperature and allow prebinding of cobamides and MCM. After incubation, one replicate at a time, the substrate mix was added to the assay mix, followed by the enzyme mix. Absorbance at 412 nm (A412) was recorded immediately after addition of enzyme and for 1 to 3 min, every 3 s, on a BioTek Synergy 2 plate reader. The increase in A412 in reaction mixtures lacking substrate was subtracted from all readings, to account for reactivity of DTNB with thiols on protein surfaces.

VpMCM (V. parvula MCM) = VpMCM (V. parvula MCM) (Veillonella parvula, UniProt A0A124EFR6); test: Fluorescence binding assay, VpMCM; conditions: fitted curve, error = standard error of the curve fit; equimolar α and β subunits
Chain of VpMCM (V. parvula MCM) (A0A124EFR6 entry or part of it): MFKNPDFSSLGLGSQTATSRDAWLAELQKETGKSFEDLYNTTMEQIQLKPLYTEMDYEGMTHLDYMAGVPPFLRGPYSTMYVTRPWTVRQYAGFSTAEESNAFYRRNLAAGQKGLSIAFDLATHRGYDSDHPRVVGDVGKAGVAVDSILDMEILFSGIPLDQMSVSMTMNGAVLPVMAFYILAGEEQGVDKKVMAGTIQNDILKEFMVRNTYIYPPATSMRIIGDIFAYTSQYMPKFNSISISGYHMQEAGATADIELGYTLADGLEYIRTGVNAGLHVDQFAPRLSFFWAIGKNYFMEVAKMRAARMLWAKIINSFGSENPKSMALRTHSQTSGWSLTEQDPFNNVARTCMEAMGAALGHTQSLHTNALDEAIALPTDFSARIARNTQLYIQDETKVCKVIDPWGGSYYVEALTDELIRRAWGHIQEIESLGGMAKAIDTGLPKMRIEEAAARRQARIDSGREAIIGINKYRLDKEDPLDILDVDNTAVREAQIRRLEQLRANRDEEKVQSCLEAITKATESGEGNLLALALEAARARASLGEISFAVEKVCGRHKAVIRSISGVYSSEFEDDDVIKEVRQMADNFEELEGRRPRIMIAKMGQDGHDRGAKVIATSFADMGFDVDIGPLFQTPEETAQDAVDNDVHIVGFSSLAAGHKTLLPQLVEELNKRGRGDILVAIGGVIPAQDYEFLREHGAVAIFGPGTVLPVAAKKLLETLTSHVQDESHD
Method: The α subunit of VpMCM (encoded by Vpar_RS09005) was expressed with an N-terminal 6×His tag from the pET-Duet expression vector in E. coli BL21(DE3). Protein expression was induced with 520 μM IPTG for 6 h at 30°C. The protein was batch purified by nickel affinity and subsequently purified by FPLC using a HiTrapQ column with an NaCl gradient from 50 to 500 mM in […], pH 8.0, 10% glycerol. The β subunit of VpMCM (encoded by Vpar_RS09000) was expressed separately with an N-terminal 6×His tag from the pET-Duet expression vector in E. coli BL21(DE3). […] Purified protein was dialyzed into 25 mM Tris-HCl, pH 8.0, 300 mM NaCl, 10% glycerol, and 1 mM β-mercaptoethanol. Concentration of pure α and β subunits (Fig. S7) was determined by absorbance at 280 nm (A280) using the theoretically calculated extinction coefficients 75,290 M^−1 cm^−1 and 74,260 M^−1 cm^−1, respectively ([125]). Equimolar amounts of α and β subunits were combined during the setup of fluorescence binding assays.
(§1) All steps involving cobamides were conducted in the dark. The plate was centrifuged for 1 min at 3,800 rpm to level the surface of the liquid in each well. The plate was then incubated for 40 min at 30°C to allow binding, with a brief shaking step after 30 min. […] Following incubation, fluorescence emission at 340 nm (5-nm slit width) was measured upon excitation at 282 nm (5-nm slit width) using a Tecan Infinite M1000 Pro plate reader. Fluorescence, normalized to the initial value, was plotted as a function of cobamide concentration, and fitted to the following equation ([134]): F/F0=1+ΔFmax/F0([E]+[L]+Kd)−([E]+[L]+Kd)^2−4[E][L]/2[E] where F is fluorescence, F0 is initial fluorescence, [E] is total enzyme concentration, [L] is total ligand concentration, and Kd is the binding dissociation constant.

[2] = target: T2, SmMCM (methylmalonyl-CoA mutase from S. meliloti) (Rhizobium meliloti, UniProt O86028); test: biochemical; format: binding, Sinorhizobium meliloti; conditions: SmMCM 0.2 μM, pH 7.5, 30°C; average and standard deviation for three or more independent experiments; n. d. = binding too weak to determine Kd
T2 construct: made in house; host or cells: E. coli BL21(DE3)pLysS
T2 sequence (O86028 2-712): T1 sequence (O86028 2-712)
Method: as §1

EcMCM (E. coli MCM) = target: T3, EcMCM (E. coli MCM) (Escherichia coli, UniProt P27253); test: Fluorescence binding assay, EcMCM; conditions: read-out: Kd EcMCM; fitted curve, error = standard error of the curve fit
T3 construct: 6xHis (N); made in house; host or cells: E. coli BL21(DE3)
T3 sequence (P27253 whole entry): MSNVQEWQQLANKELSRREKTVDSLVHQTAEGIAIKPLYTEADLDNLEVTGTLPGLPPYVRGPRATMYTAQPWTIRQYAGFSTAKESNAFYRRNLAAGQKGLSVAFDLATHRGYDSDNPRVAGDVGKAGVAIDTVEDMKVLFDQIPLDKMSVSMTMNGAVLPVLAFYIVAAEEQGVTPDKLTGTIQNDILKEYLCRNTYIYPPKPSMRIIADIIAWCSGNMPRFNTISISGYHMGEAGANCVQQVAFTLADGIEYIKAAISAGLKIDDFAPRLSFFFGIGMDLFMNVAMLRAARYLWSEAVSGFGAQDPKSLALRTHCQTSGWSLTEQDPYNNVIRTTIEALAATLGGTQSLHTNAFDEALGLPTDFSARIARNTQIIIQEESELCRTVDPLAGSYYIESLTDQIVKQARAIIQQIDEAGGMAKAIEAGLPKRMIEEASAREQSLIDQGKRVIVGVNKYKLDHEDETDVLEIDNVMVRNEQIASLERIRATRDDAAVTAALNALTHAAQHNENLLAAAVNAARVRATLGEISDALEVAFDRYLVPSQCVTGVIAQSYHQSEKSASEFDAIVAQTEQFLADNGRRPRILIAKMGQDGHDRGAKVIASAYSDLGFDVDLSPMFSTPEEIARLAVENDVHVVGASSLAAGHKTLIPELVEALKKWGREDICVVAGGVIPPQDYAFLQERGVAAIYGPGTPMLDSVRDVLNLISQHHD
Method: as §1

[3] = tested on: S. meliloti cobD::gus Gm^r metH::Tn5 ΔnrdJ pMS03-nrdABEc^+; test: MCM-dependent growth of S. meliloti on isoleucine/valine; format: cell-based, Sinorhizobium meliloti; conditions: for EC50: OD600 at 145 h, L-isoleucine and L-valine as sole carbon sources, average and SD for five or more biological replicates, read-out: EC50 (concentration required to achieve half of the maximal OD600); for EC50 fold higher than CNCbl: MCM-dependent growth
Method: Because nrdJ is essential, the E. coli cobamide-independent ribonucleotide reductase encoded by nrdA and nrdB was expressed from the pMS03 plasmid ([143]). The strain was precultured in M9 medium ([144]) (modified concentration of MgSO4: 1 mM) containing 0.1% sucrose, 2 g/liter isoleucine, 2 g/liter valine, 1 g/liter methionine, and 20 μg/ml gentamicin, with shaking at 30°C. After 2 days, cells were washed and diluted to an OD600 of 0.02 into M9 medium containing 4 g/liter isoleucine, 4 g/liter valine, 1 g/liter methionine, 20 μg/ml gentamicin, and cobamides at various concentrations as indicated for each experiment, in 384-well plates. The plates were incubated at 30°C for 145 h in a BioTek Synergy 2 plate reader with linear shaking at 1,140 cpm. OD600 was measured in 1-h increments.

MCM = tested on: MCM; parameters: method as in PMID 14235521; conditions: cited from earlier work

| Molecule | Kd [2] [nM] | EC50 [3] [nM] | further results |
| --- | --- | --- | --- |
| C/C1=C2/[N-][C@H]([C@H](CC(N)=O)[C@@]2(C)CCC(=O)NC[C@@H](C)OP(=O)([O-])O[C@H]2[C@@H](O)[C@@H](Oc3ccc(C)cc3)O[C@@H]2CO)[C@]2(C)N=C(/C(C)=C3N=C(/C=C4N=C1[C@@H](CCC(N)=O)C\4(C)C)[C@@H](CCC(N)=O)[C@]\3(C)CC(N)=O)[C@@H](CCC(N)=O)[C@]2(C)CC(N)=O.[CH2-][C@H]1O[C@@H](n2cnc3c(N)ncnc32)[C@H](O)[C@@H]1O.[Co+3] [Ado[Cre]Cba, para-Cresolylcobamide] | 50 ± 10 |  | kcat [1]: 15 ± 1 s⁻¹; Kd (VpMCM (V. parvula MCM)): 1300 ± 100 nM; Kd (EcMCM (E. coli MCM)): 620 ± 90 nM |
| Phenolylcobamide [CN[Phe]Cba] |  | 400 ± 100 |  |
| C/C1=C2/[N-][C@H]([C@H](CC(N)=O)[C@@]2(C)CCC(=O)NC[C@@H](C)OP(=O)([O-])O[C@H]2[C@@H](O)[C@@H](n3cnc4cc(C)ccc43)O[C@@H]2CO)[C@]2(C)N=C(/C(C)=C3N=C(/C=C4N=C1[C@@H](CCC(N)=O)C\4(C)C)[C@@H](CCC(N)=O)[C@]\3(C)CC(N)=O)[C@@H](CCC(N)=O)[C@]2(C)CC(N)=O.[CH2-][C@H]1O[C@@H](n2cnc3c(N)ncnc32)[C@H](O)[C@@H]1O.[Co+3] [Ado[5-MeBza]Cba, 5-Methylbenzimidazolylcobamide] | 100 ± 40 |  | kcat [1]: 12.8 ± 0.5 s⁻¹ |
| C/C1=C2/[N-][C@H]([C@H](CC(N)=O)[C@@]2(C)CCC(=O)NC[C@@H](C)OP(=O)([O-])O[C@H]2[C@@H](O)[C@@H](n3cnc4cccc(C)c43)O[C@@H]2CO)[C@]2(C)N=C(/C(C)=C3N=C(/C=C4N=C1[C@@H](CCC(N)=O)C\4(C)C)[C@@H](CCC(N)=O)[C@]\3(C)CC(N)=O)[C@@H](CCC(N)=O)[C@]2(C)CC(N)=O.[CH2-][C@H]1O[C@@H](n2cnc3c(N)ncnc32)[C@H](O)[C@@H]1O.[Co+3] [Ado[7-MeBza]Cba, 7-Methylbenzimidazolylcobamide] | 100 ± 20 |  |  |
| C/C1=C2/[N-][C@H]([C@H](CC(N)=O)[C@@]2(C)CCC(=O)NC[C@@H](C)OP(=O)([O-])O[C@H]2[C@@H](O)[C@@H](Oc3ccccc3)O[C@@H]2CO)[C@]2(C)N=C(/C(C)=C3N=C(/C=C4N=C1[C@@H](CCC(N)=O)C\4(C)C)[C@@H](CCC(N)=O)[C@]\3(C)CC(N)=O)[C@@H](CCC(N)=O)[C@]2(C)CC(N)=O.[CH2-][C@H]1O[C@@H](n2cnc3c(N)ncnc32)[C@H](O)[C@@H]1O.[Co+3] [Ado[Phe]Cba, Phenolylcobamide] | 200 ± 30 |  | kcat [1]: 8.3 ± 0.4 s⁻¹; Kd (VpMCM (V. parvula MCM)): 5000 ± 1000 nM; Kd (EcMCM (E. coli MCM)): 1300 ± 200 nM |
| C/C1=C2/[N-][C@H]([C@H](CC(N)=O)[C@@]2(C)CCC(=O)NC[C@@H](C)OP(=O)([O-])O[C@H]2[C@@H](O)[C@@H](n3cnc4nc(C)nc(N)c43)O[C@@H]2CO)[C@]2(C)N=C(/C(C)=C3N=C(/C=C4N=C1[C@@H](CCC(N)=O)C\4(C)C)[C@@H](CCC(N)=O)[C@]\3(C)CC(N)=O)[C@@H](CCC(N)=O)[C@]2(C)CC(N)=O.[CH2-][C@H]1O[C@@H](n2cnc3c(N)ncnc32)[C@H](O)[C@@H]1O.[Co+3] [Ado[2-MeAde]Cba, 2-Methyladeninylcobamide] | 1700 ± 700 |  | Kd (VpMCM (V. parvula MCM)): 1500 ± 200 nM; Kd (EcMCM (E. coli MCM)): 350 ± 40 nM |
| C#N.C/C1=C2/N[C@H]([C@H](CC(N)=O)[C@@]2(C)CCC(=O)NC[C@@H](C)OP(=O)(O)O[C@H]2[C@@H](O)[C@@H](n3cnc4ncnc(N)c43)O[C@@H]2CO)[C@]2(C)N=C(/C(C)=C3N=C(/C=C4N=C1[C@@H](CCC(N)=O)C\4(C)C)[C@@H](CCC(N)=O)[C@]\3(C)CC(N)=O)[C@@H](CCC(N)=O)[C@]2(C)CC(N)=O.[Co] [CN[Ade]Cba, Adeninylcobamide] |  | 350 ± 90 |  |
| para-Cresolylcobamide [CN[Cre]Cba] |  | 700 ± 100 |  |
| 2-Methyladeninylcobamide [CN[2-MeAde]Cba] |  | 24 ± 9 | EC50 fold higher than CNCbl [3]: 5 fold |
| C/C1=C2/[N-][C@H]([C@H](CC(N)=O)[C@@]2(C)CCC(=O)NC[C@@H](C)OP(=O)([O-])O[C@H]2[C@@H](O)[C@@H](n3cnc4ccccc43)O[C@@H]2CO)[C@]2(C)N=C(/C(C)=C3N=C(/C=C4N=C1[C@@H](CCC(N)=O)C\4(C)C)[C@@H](CCC(N)=O)[C@]\3(C)CC(N)=O)[C@@H](CCC(N)=O)[C@]2(C)CC(N)=O.[CH2-][C@H]1O[C@@H](n2cnc3c(N)ncnc32)[C@H](O)[C@@H]1O.[Co+3] [Ado[Bza]Cba, Benzimidazolylcobamide] | 400 ± 200 |  | Kd (VpMCM (V. parvula MCM)): 1400 ± 300 nM; Kd (EcMCM (E. coli MCM)): 1800 ± 200 nM; MCM activity in S. meliloti bacteroids (MCM): intermediate |
| cyanocobalamin [CNCbl, reference compound] |  | 5 ± 1 |  |
| C/C1=C2/[N-][C@H]([C@H](CC(N)=O)[C@@]2(C)CCC(=O)NC[C@@H](C)OP(=O)([O-])O[C@H]2[C@@H](O)[C@@H](n3cnc4cccc(N)c43)O[C@@H]2CO)[C@]2(C)N=C(/C(C)=C3N=C(/C=C4N=C1[C@@H](CCC(N)=O)C\4(C)C)[C@@H](CCC(N)=O)[C@]\3(C)CC(N)=O)[C@@H](CCC(N)=O)[C@]2(C)CC(N)=O.[CH2-][C@H]1O[C@@H](n2cnc3c(N)ncnc32)[C@H](O)[C@@H]1O.[Co+3] [Ado[7-AmBza]Cba, 7-Aminobenzimidazolylcobamide] | 700 ± 100 |  |  |
| 5-Hydroxybenzimidazolylcobamide [CN[5-OHBza]Cba] |  | 400 ± 100 |  |
| Purinylcobamide [CN[Pur]Cba] |  | 600 ± 200 |  |
| Benzimidazolylcobamide [CN[Bza]Cba] |  | 27 ± 7 | EC50 fold higher than CNCbl [3]: 5 fold |
